This note sets out measurements from US12391659B2, “Benzothiazole and related compounds” (Spinogenix, Inc., priority 2017, dated 2025).

For this experiment, the system named is primary mouse cortical neurons. As to the kind of experiment: In vitro spinogenesis: synaptophysin (P38) puncta / synapse count in primary mouse cortical neurons. Type of experiment: cell-based. The following applies: for increase in the number of synapses compared to the control: 1 μM, 24 hrs of treatment starting at DIV 15, DIV 16 neurons; for number of synaptic puncta (P38-immunopositive) compared to the vehicle control: 5 μM, 24 hours of treatment starting at DIV 15, DIV 16 neurons. The text has this: Compounds of the current invention bind to the actin bundling protein, fascin, and prevent the formation of long, stiff actin cytoskeleton, thereby promoting dendritic spine formation. (see, Sedeh, R. S. et al. J. Mol. Biol. 400, 589-604 (2010); Chen, L. et al. Nature 464, 1062-1066 (2010); Jansen, S. et al. J. Biol. Chem. 286, 30087-30096 (2011); Yang, S. et al. J. Biol. Chem. 288, 274-284 (2013); Zheng, S. et al. J. Med. Chem. 57, 6653-6667 (2014)). […] Specifically, the Benzothiazole-IIIA and Benzothiazole-IIIB compounds of the instant invention, as well as the Benzothiazole-I compound as described in International application number PCT/US2017/012139, were used in this study (FIG. 1).
Primary mouse cortical neurons were treated with 5 μM of Benzothiazole-I, Benzothiazole-IIIA, or Benzothiazole-IIIB at DIV 15. As a control, primary mouse cortical neurons were treated with the vehicle only (10% DMSO, 90% phosphate buffered saline (PBS)). After 24 hours, the DIV 16 neurons were fixed, immunostained using the presynaptic vesicle protein synaptophysin (P38), counterstained with the nuclear dye DAPI (4′,6-diamidino-2-phenylindole,), and counted. Immunolabeled neurons were imaged on a Leica confocal microscope. The numbers of P38-immunopositive puncta were analyzed using FIJI with the Squash plugin (FIG. 2).
In a similar experiment, the primary mouse cortical neurons were treated with 1 μM of Benzothiazole-I or Benzothiazole-IIIB at DIV 15, using the same DMSO/PBS buffer solution described above as the control vehicle. After 24 hours, the DIV 16 neurons were fixed, immunolabeled with synaptophysin, stained with DAPI, and counted as described above.

Consider `Cc1ccc2nc(-c3ccc(NCCOCCOCCOCCO)cc3)sc2c1` [Benzothiazole-I, ((4-(6-methylbenzo[d]thiazol-2-yl)phenyl)amino)-(CH2CH2O)4H, reference compound], for which the “increase in the number of synapses compared to the control” value is ~100% and the “number of synaptic puncta (P38-immunopositive) compared to the vehicle control” value (“number … compared to the vehicle control” below) is “increase”.

Turning to `OCCOCCOCCOCCOCCOCCOc1ccc(-c2nc3ccccc3s2)cc1` [Benzothiazole-IIIA], the “number … compared to the vehicle control” value is “increase”.

Regarding `OCCOCCOCCOCCOc1ccc(-c2nc3ccccc3s2)cc1` [Benzothiazole-IIIB, 2-(2-(2-(2-(4-(benzo[d]thiazol-2-yl)phenoxy)ethoxy)ethoxy)ethoxy)ethan-1-ol], the “increase in the number of synapses compared to the control” value is reported as ~100% and the “number … compared to the vehicle control” value is “increase”.
